Experimental data from US6737383B1, “Herbicidal oxadiazolidines” (priority 1999, dated 2004).

Columns and labels:
[1] = system: bedstraw; experiment: Test B pre/postemergence bedstraw; format: in vivo, Galium aparine
Method in brief: (§1)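 Herbicidal effect was estimated by eye on a ten-point control scale after plants spent twelve to sixteen days in a greenhouse following soil or foliar treatment. Foliar sprays targeted plants at one to four leaves; all doses were formulated in a non-phytotoxic solvent with surfactant.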

[2] = system: blackgrass; experiment: Test B pre/postemergence blackgrass; format: in vivo, Alopecurus myosuroides
Method in brief: as §1

[3] = system: surinam grass; experiment: Test B pre/postemergence surinam grass; format: in vivo, Brachiaria decumbens
Method in brief: as §1

[4] = system: corn; experiment: Test B pre/postemergence corn; format: in vivo, Zea mays
Method in brief: as §1

[5] = system: crabgrass; experiment: Test B pre/postemergence crabgrass; format: in vivo, Digitaria sanguinalis
Method in brief: as §1

[6] = system: giant foxtail; experiment: Test B pre/postemergence giant foxtail; format: in vivo, Setaria faberii
Method in brief: as §1

[7] = system: morningglory; experiment: Test B pre/postemergence morningglory; format: in vivo, Ipomoea hederacea
Method in brief: as §1

[8] = system: pigweed; experiment: Test B pre/postemergence pigweed; format: in vivo, Amaranthus retroflexus
Method in brief: as §1

[9] = system: rape; experiment: Test B pre/postemergence rape; format: in vivo, Brassica napus
Method in brief: as §1

[10] = system: soybean; experiment: Test B pre/postemergence soybean; format: in vivo, Glycine max
Method in brief: as §1

[11] = system: velvetleaf; experiment: Test B pre/postemergence velvetleaf; format: in vivo, Abutilon theophrasti
Method in brief: as §1

[12] = system: wheat; experiment: Test B pre/postemergence wheat; format: in vivo, Triticum aestivum
Method in brief: as §1

[13] = system: wild oat; experiment: Test B pre/postemergence wild oat; format: in vivo, Avena fatua
Method in brief: as §1

[14] = system: purple nutsedge; experiment: Test B pre/postemergence purple nutsedge; format: in vivo, Cyperus rotundus
Method in brief: as §1

[15] = system: duck salad; experiment: Test B flood test duck salad; format: in vivo, Heteranthera limosa; settings: Rate 125 g/ha; Postemergence section (flood test species); scale 0 to 10, 0 no effect, 10 complete control
Method in brief: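 Read-out is a visual response score from 0 (no effect) to 10 (complete control), assigned by comparison with untreated controls. Treatment was applied at the 2-leaf stage, and plants stayed in the greenhouse for twelve to sixteen days before scoring.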

[16] = Postemergence, Rate 62 g/ha, scale 0 to 10, 0 is no effect, 10 is complete control
[17] = Preemergence, Rate 62 g/ha, scale 0 to 10, 0 is no effect, 10 is complete control
[18] = Preemergence, Rate 125 g/ha, scale 0 to 10 (0 no effect, 10 complete control)
[19] = Preemergence, Rate 250 g/ha, scale of 0 to 10 where 0 is no effect and 10 is complete control
[20] = Preemergence, Rate 500 g/ha, scale 0 (no effect) to 10 (complete control)
[21] = Rate 500 g/ha, Postemergence, 0 to 10 scale (0 no effect, 10 complete control)
[22] = Postemergence, Rate 250 g/ha, scale 0 to 10, 0 no effect, 10 complete control
[23] = Rate 125 g/ha, Postemergence, scale 0 to 10, 0 no effect, 10 complete control

Compound: Cc1ccc(N(C(=O)n2oc(=O)n(-c3ccccc3C)c2=O)C(C)C)cc1 [Compound 40]
- Bedstraw plant response rating [1, 16]: 0
- Plant response rating, Bedstraw [1, 17]: 0
- Plant response rating, Bedstraw [1, 18]: 0
- Plant response rating, Bedstraw [1, 19]: 0
- Bedstraw plant response rating [1, 20]: 0
- Bedstraw plant response rating [1, 21]: 2
- Blackgrass plant response rating [2, 16]: 0
- Blackgrass plant response rating [2, 22]: 4
- Plant response rating, Blackgrass [2, 17]: 0
- Plant response rating, Blackgrass [2, 18]: 0
- Plant response rating, Blackgrass [2, 19]: 1
- Blackgrass plant response rating [2, 20]: 6
- Blackgrass plant response rating [2, 23]: 0
- Blackgrass plant response rating [2, 21]: 7
- B. signalgrass plant response rating [3, 16]: 0
- B. signalgrass plant response rating [3, 22]: 0
- Plant response rating, B. signalgrass [3, 17]: 0
- Plant response rating, B. signalgrass [3, 18]: 0
- Plant response rating, B. signalgrass [3, 19]: 5
- B. signalgrass plant response rating [3, 20]: 7
- B. signalgrass plant response rating [3, 23]: 0
- B. signalgrass plant response rating [3, 21]: 0
- Corn plant response rating [4, 16]: 0
- Corn plant response rating [4, 22]: 0
- Plant response rating, Corn [4, 17]: 0
- Plant response rating, Corn [4, 18]: 0
- Plant response rating, Corn [4, 19]: 0
- Corn plant response rating [4, 20]: 0
- Corn plant response rating [4, 23]: 0
- Corn plant response rating [4, 21]: 0
- Crabgrass plant response rating [5, 16]: 0
- Crabgrass plant response rating [5, 22]: 6
- Plant response rating, Crabgrass [5, 17]: 2
- Plant response rating, Crabgrass [5, 18]: 4
- Plant response rating, Crabgrass [5, 19]: 7
- Crabgrass plant response rating [5, 20]: 10
- Crabgrass plant response rating [5, 23]: 1
- Crabgrass plant response rating [5, 21]: 7
- Giant foxtail plant response rating [6, 16]: 0
- Giant foxtail plant response rating [6, 22]: 1
- Plant response rating, Giant foxtail [6, 17]: 9
- Plant response rating, Giant foxtail [6, 18]: 9
- Plant response rating, Giant foxtail [6, 19]: 10
- Giant foxtail plant response rating [6, 20]: 10
- Giant foxtail plant response rating [6, 23]: 0
- Giant foxtail plant response rating [6, 21]: 3
- Morningglory plant response rating [7, 16]: 3
- Morningglory plant response rating [7, 22]: 6
- Plant response rating, Morningglory [7, 17]: 0
- Plant response rating, Morningglory [7, 18]: 0
- Plant response rating, Morningglory [7, 19]: 0
- Morningglory plant response rating [7, 20]: 0
- Morningglory plant response rating [7, 23]: 6
- Morningglory plant response rating [7, 21]: 7
- Redroot pigweed plant response rating [8, 16]: 0
- Redroot pigweed plant response rating [8, 22]: 2
- Plant response rating, Redroot pigweed [8, 17]: 0
- Plant response rating, Redroot pigweed [8, 18]: 1
- Plant response rating, Redroot pigweed [8, 19]: 4
- Redroot pigweed plant response rating [8, 20]: 6
- Redroot pigweed plant response rating [8, 23]: 1
- Rape plant response rating [9, 16]: 0
- Rape plant response rating [9, 22]: 0
- Plant response rating, Rape [9, 17]: 0
- Plant response rating, Rape [9, 18]: 0
- Plant response rating, Rape [9, 19]: 0
- Rape plant response rating [9, 20]: 0
- Rape plant response rating [9, 23]: 0
- Rape plant response rating [9, 21]: 0
- Soybean plant response rating [10, 16]: 3
- Soybean plant response rating [10, 22]: 4
- Plant response rating, Soybean [10, 17]: 0
- Plant response rating, Soybean [10, 18]: 0
- Plant response rating, Soybean [10, 19]: 0
- Soybean plant response rating [10, 20]: 0
- Soybean plant response rating [10, 23]: 3
- Velvetleaf plant response rating [11, 16]: 0
- Velvetleaf plant response rating [11, 22]: 0
- Plant response rating, Velvetleaf [11, 17]: 0
- Plant response rating, Velvetleaf [11, 18]: 0
- Plant response rating, Velvetleaf [11, 19]: 0
- Velvetleaf plant response rating [11, 20]: 0
- Velvetleaf plant response rating [11, 23]: 0
- Wheat plant response rating [12, 16]: 0
- Wheat plant response rating [12, 22]: 0
- Plant response rating, Wheat [12, 17]: 0
- Plant response rating, Wheat [12, 18]: 0
- Plant response rating, Wheat [12, 19]: 0
- Wheat plant response rating [12, 20]: 0
- Wheat plant response rating [12, 23]: 0
- Wild oats plant response rating [13, 16]: 0
- Wild oats plant response rating [13, 22]: 0
- Plant response rating, Wild oats [13, 18]: 0
- Plant response rating, Wild oats [13, 19]: 0
- Wild oats plant response rating [13, 20]: 5
- Wild oats plant response rating [13, 23]: 0
- Nutsedge plant response rating [14, 16]: 0
- Nutsedge plant response rating [14, 22]: 0
- Plant response rating, Nutsedge [14, 17]: 0
- Plant response rating, Nutsedge [14, 18]: 0
- Plant response rating, Nutsedge [14, 19]: 0
- Nutsedge plant response rating [14, 20]: 0
- Nutsedge plant response rating [14, 23]: 0
- Nutsedge plant response rating [14, 21]: 0
- Ducksalad plant response rating [15]: 0
